Values quoted from earlier work in PubChem BioAssay AID1259409 (Chemical Carcinogenesis Research Information System (CCRIS), 2018).

System: rodent chemically induced tumor inhibition, incidence and multiplicity
Test: CCRIS tumor inhibitor studies
Conditions: Route [Inhibitor]: ORAL, Promoter: NONE USED

## CC1=C(/C=C/C(C)=C/C=C/C(C)=C\C(=O)O)C(C)(C)CCC1
Carcinogen: N-METHYL-N-NITROSOUREA, 684-93-5, Dose [Inhibitor]: 128 MG/KG DIET DAILY FOR 55 WK STARTING 1 WK AFTER LAST CARCINOGEN EXPOSURE (STUDY DURATION: 65 WK), Species: HAMSTER, Strain/Sex: SYRIAN/MALE, Target Tissue: Type of Lesion: TRACHEA: TUMOR, Dose [Carcinogen]: 1% FOR 7 SECONDS 2/WK FOR 9 WK
  tumour outcome (control, treated, inhibition, significance): 30/37 (81%), 26/34 (76%), 6%, not significant
Carcinogen: N-METHYL-N-NITROSOUREA, 684-93-5, Dose [Inhibitor]: 172 MG/KG DIET DAILY FOR 55 WK STARTING 1 WK AFTER LAST CARCINOGEN EXPOSURE (STUDY DURATION: 67.5 WK), Species: HAMSTER, Strain/Sex: SYRIAN/MALE, Target Tissue: Type of Lesion: TRACHEA: TUMORS, Dose [Carcinogen]: 1% FOR 7 SECONDS 2/WK FOR 11.5 WK
  tumour outcome (control, treated, inhibition, significance): 24/40 (60%), 24/40 (60%), 0%, not significant
Carcinogen: N-METHYL-N-NITROSOUREA, 684-93-5, Dose [Inhibitor]: 240 MG/KG OF DIET DAILY STARTING 5 D AFTER FINAL CARCINOGEN TREATMENT AND CONTINUING THROUGH END OF STUDY (STUDY DURATIO, Species: RAT, Strain/Sex: F344/MALE, Target Tissue: Type of Lesion: COLON: INVASIVE TUBULOPAPILLARY ADENOCARCINOMA, Dose [Carcinogen]: 0.5 MG 2/WK FOR 8 WK
  tumour outcome (control, treated, inhibition, significance): 33%, 27%, 18%, not significant
Carcinogen: N-METHYL-N-NITROSOUREA, 684-93-5, Dose [Inhibitor]: 240 MG/KG OF DIET DAILY STARTING 5 D AFTER FINAL CARCINOGEN TREATMENT AND CONTINUING THROUGH END OF STUDY (STUDY DURATIO, Species: RAT, Strain/Sex: F344/MALE, Target Tissue: Type of Lesion: COLON: INVASIVE TUBULOPAPILLARY ADENOCARCINOMA, Dose [Carcinogen]: 1 MG 2/WK FOR 8 WK
  tumour outcome (control, treated, inhibition, significance): 80%, 90%, -13%, not significant
Carcinogen: N-METHYL-N-NITROSOUREA, 684-93-5, Dose [Inhibitor]: 240 MG/KG OF DIET DAILY STARTING 5 D AFTER FINAL CARCINOGEN TREATMENT AND CONTINUING THROUGH END OF STUDY (STUDY DURATIO, Species: RAT, Strain/Sex: F344/MALE, Target Tissue: Type of Lesion: COLON: INVASIVE TUBULOPAPILLARY ADENOCARCINOMA, Dose [Carcinogen]: 2 MG 2/WK FOR 8 WK
  tumour outcome (control, treated, inhibition, significance): 95%, 100%, -5%, not significant
Carcinogen: N-NITROBIS(2-OXOPROPYL)AMINE, 60559-38-4, Dose [Inhibitor]: 0.4 MMOL/KG/D IN DIET STARTING 1 WK AFTER CARCINOGEN TREATMENT AND CONTINUING THROUGH THE END OF THE STUDY (STUDY DURATI, Species: HAMSTER, Strain/Sex: SYRIAN/FEMALE, Target Tissue: Type of Lesion: LIVER: BENIGN TUMOR, Dose [Carcinogen]: 40 MG/KG BW ONCE
  tumour outcome (control, treated, inhibition, significance): 4/20 (20%), 10/15 (67%), -235%, p<0.05
Carcinogen: N-NITROBIS(2-OXOPROPYL)AMINE, 60559-38-4, Dose [Inhibitor]: 0.4 MMOL/KG/D IN DIET STARTING 1 WK AFTER CARCINOGEN TREATMENT AND CONTINUING THROUGH THE END OF THE STUDY (STUDY DURATI, Species: HAMSTER, Strain/Sex: SYRIAN/FEMALE, Target Tissue: Type of Lesion: PANCREAS: DUCTULAR ADENOMA, Dose [Carcinogen]: 40 MG/KG BW ONCE
  tumour outcome (control, treated, inhibition, significance): 12/20 (60%), 7/14 (50%), 17%, not significant
Carcinogen: N-NITROBIS(2-OXOPROPYL)AMINE, 60559-38-4, Dose [Inhibitor]: 0.4 MMOL/KG/D IN DIET STARTING 1 WK AFTER CARCINOGEN TREATMENT AND CONTINUING THROUGH THE END OF THE STUDY (STUDY DURATI, Species: HAMSTER, Strain/Sex: SYRIAN/FEMALE, Target Tissue: Type of Lesion: PANCREAS: DUCTULAR CARCINOMA, Dose [Carcinogen]: 40 MG/KG BW ONCE
  tumour outcome (control, treated, inhibition, significance): 6/20 (30%), 9/14 (64%), -113%, not significant
Carcinogen: N-NITROBIS(2-OXOPROPYL)AMINE, 60559-38-4, Dose [Inhibitor]: 0.4 MMOL/KG/D IN DIET STARTING 1 WK AFTER CARCINOGEN TREATMENT AND CONTINUING THROUGH THE END OF THE STUDY (STUDY DURATI, Species: HAMSTER, Strain/Sex: SYRIAN/MALE, Target Tissue: Type of Lesion: PANCREAS: DUCTULAR CARCINOMA, Dose [Carcinogen]: 40 MG/KG BW ONCE
  tumour outcome (control, treated, inhibition, significance): 5/24 (21%), 9/24 (38%), -81%, not significant
Carcinogen: N-NITROBIS(2-OXOPROPYL)AMINE, 60559-38-4, Dose [Inhibitor]: 0.4 OR 0.8 MMOL/KG DIET DAILY STARTING 1 WK AFTER CARCINOGEN TREATMENT AND CONTINUING THROUGH THE END OF THE STUDY (STUD, Species: HAMSTER, Strain/Sex: SYRIAN/FEMALE, Target Tissue: Type of Lesion: LIVER: BENIGN TUMOR, Dose [Carcinogen]: 40 MG/KG BW ONCE
  tumour outcome (control, treated, inhibition, significance): 4/20 (20%), 10/15 (67%), -235%, p<0.05
Carcinogen: N-NITROBIS(2-OXOPROPYL)AMINE, 60559-38-4, Dose [Inhibitor]: 0.4 OR 0.8 MMOL/KG DIET DAILY STARTING 1 WK AFTER CARCINOGEN TREATMENT AND CONTINUING THROUGH THE END OF THE STUDY (STUD, Species: HAMSTER, Strain/Sex: SYRIAN/FEMALE, Target Tissue: Type of Lesion: PANCREAS: DUCTULAR ADENOMA, Dose [Carcinogen]: 10 MG/KG BW ONCE
  tumour outcome (control, treated, inhibition, significance): 5/23 (22%), 9/23 (39%), -77%, not significant
